Source: patent US9302999B2, “Substituted triazoles as herbicides” (E. I. DU PONT DE NEMOURS AND COMPANY, priority 2012, dated 2016)

How the values were obtained:
Assay type in all cases: in vivo
[1] = system: barnyardgrass (Echinochloa crus-galli); assay: Test A pre-/postemergence: barnyardgrass; conditions: for Barnyardgrass plant response rating: Postemergence; for Plant response rating, Barnyardgrass: Preemergence
How it was run: (§1)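 Seeds were sown in loam/sand blend and sprayed preemergence (directed soil spray) and, simultaneously, postemergence at 2–10 cm, one- to two-leaf stage, using compounds in non-phytotoxic solvent with surfactant. After ~10 days in greenhouse, injury was rated visually versus untreated controls, 0 (no effect) to 100 (complete control).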

[2] = system: crabgrass, large (large crabgrass, Digitaria sanguinalis); assay: Test A pre-/postemergence: crabgrass, large; conditions: for Crabgrass, Large plant response rating: Postemergence; for Plant response rating, Crabgrass, Large: Preemergence
How it was run: as §1

[3] = system: foxtail, giant (giant foxtail, Setaria faberii); assay: Test A pre-/postemergence: foxtail, giant; conditions: for Foxtail, Giant plant response rating: Postemergence; for Plant response rating, Foxtail, Giant: Preemergence
How it was run: as §1

[4] = system: morningglory (Ipomoea spp.); assay: Test A pre-/postemergence: morningglory; conditions: for Morningglory plant response rating: Postemergence; for Plant response rating, Morningglory: Preemergence
How it was run: as §1

[5] = system: pigweed (Amaranthus retroflexus); assay: Test A pre-/postemergence: pigweed; conditions: for Pigweed plant response rating: Postemergence; for Plant response rating, Pigweed: Preemergence
How it was run: as §1

[6] = system: velvetleaf (Abutilon theophrasti); assay: Test A pre-/postemergence: velvetleaf; conditions: for Velvetleaf plant response rating: Postemergence; for Plant response rating, Velvetleaf: Preemergence
How it was run: as §1

[7] = system: wheat (Triticum aestivum); assay: Test A pre-/postemergence: wheat; conditions: for Wheat plant response rating: Postemergence; for Plant response rating, Wheat: Preemergence
How it was run: as §1

corn (Zea mays) = assay: Test A pre-/postemergence: corn; conditions: for Corn plant response rating: Postemergence; for Plant response rating, Corn: Preemergence
How it was run: as §1

rice (Oryza sativa) = assay: Test C flooded paddy test: rice; conditions: scale 0 to 100 (0 no effect, 100 complete control)
How it was run: (§2)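 Plants at 2-leaf stage in pots flooded 3 cm above soil; compounds applied directly into the paddy water, depth maintained. Visual rating against controls after 13–15 days in greenhouse, scale 0 (no effect) to 100 (complete control).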

[8] = system: sedge, umbrella (small-flower umbrella sedge, Cyperus difformis); assay: Test C flooded paddy test: sedge, umbrella; conditions: scale 0 to 100 (0 no effect, 100 complete control)
How it was run: as §2

[9] = system: ducksalad (Heteranthera limosa); assay: Test C flooded paddy test: ducksalad; conditions: scale 0 to 100 (0 no effect, 100 complete control)
How it was run: as §2

[10] = system: barnyardgrass (Echinochloa crus-galli); assay: Test C flooded paddy test: barnyardgrass; conditions: scale 0 to 100 (0 no effect, 100 complete control)
How it was run: as §2

[11] = 125 g ai/ha, 0 to 100 scale, 0 is no effect, 100 is complete control
[12] = 500 g ai/ha, visual rating on 0 to 100 scale (0 no effect, 100 complete control), approximately ten days
[13] = 125 g ai/ha, 0 to 100 scale (0 no effect, 100 complete control)
[14] = 500 g ai/ha, 0 to 100 scale, 0 is no effect, 100 is complete control
[15] = 125 g ai/ha, 0 to 100 scale where 0 is no effect and 100 is complete control
[16] = Flood (flooded paddy test), 125 g ai/ha, visual rating after 13 to 15 days
[17] = Flood (flooded paddy test), 250 g ai/ha, visual rating after 13 to 15 days

Cc1nn(-c2cccc(I)c2)nc1C(=O)c1cccc(C(F)(F)F)c1 [Compound 90]
Barnyardgrass plant response rating [1, 11]: 0 | Barnyardgrass plant response rating [1, 12]: 10 | Plant response rating, Barnyardgrass [1, 13]: 0 | Plant response rating, Barnyardgrass [1, 14]: 0 | Crabgrass, Large plant response rating [2, 11]: 0 | Crabgrass, Large plant response rating [2, 12]: 10 | Plant response rating, Crabgrass, Large [2, 13]: 0 | Plant response rating, Crabgrass, Large [2, 14]: 0 | Foxtail, Giant plant response rating [3, 11]: 0 | Foxtail, Giant plant response rating [3, 12]: 10 | Plant response rating, Foxtail, Giant [3, 15]: 0 | Plant response rating, Foxtail, Giant [3, 14]: 0 | Morningglory plant response rating [4, 11]: 0 | Morningglory plant response rating [4, 12]: 10 | Plant response rating, Morningglory [4, 15]: 0 | Plant response rating, Morningglory [4, 14]: 0 | Pigweed plant response rating [5, 11]: 0 | Pigweed plant response rating [5, 12]: 30 | Plant response rating, Pigweed [5, 15]: 0 | Plant response rating, Pigweed [5, 14]: 0 | Velvetleaf plant response rating [6, 11]: 0 | Velvetleaf plant response rating [6, 12]: 0 | Plant response rating, Velvetleaf [6, 15]: 0 | Plant response rating, Velvetleaf [6, 14]: 0 | Wheat plant response rating [7, 11]: 0 | Wheat plant response rating [7, 12]: 0 | Plant response rating, Wheat [7, 15]: 0 | Plant response rating, Wheat [7, 14]: 0 | Corn plant response rating (corn (Zea mays); [11]): 0 | Corn plant response rating (corn (Zea mays); [12]): 10 | Plant response rating, Corn (corn (Zea mays); [13]): 0 | Plant response rating, Corn (corn (Zea mays); [14]): 0 | Plant response rating, Rice (rice (Oryza sativa); [16]): 0 | Plant response rating, Rice (rice (Oryza sativa); [17]): 0 | Plant response rating, Rice (rice (Oryza sativa); Flood, 31 g ai/ha): 0 | Plant response rating, Rice (rice (Oryza sativa); Flood, 62 g ai/ha): 0 | Plant response rating, Sedge, Umbrella [8, 16]: 0 | Plant response rating, Sedge, Umbrella [8, 17]: 0 | Plant response rating, Sedge, Umbrella ([8]; Flood, 31 g ai/ha): 0 | Plant response rating, Sedge, Umbrella ([8]; Flood, 62 g ai/ha): 0 | Plant response rating, Ducksalad [9, 16]: 0 | Plant response rating, Ducksalad [9, 17]: 0 | Plant response rating, Ducksalad ([9]; Flood, 31 g ai/ha): 0 | Plant response rating, Ducksalad ([9]; Flood, 62 g ai/ha): 0 | Plant response rating, Barnyardgrass [10, 16]: 0 | Plant response rating, Barnyardgrass [10, 17]: 0 | Plant response rating, Barnyardgrass ([10]; Flood, 31 g ai/ha): 0 | Plant response rating, Barnyardgrass ([10]; Flood, 62 g ai/ha): 0

Cc1nn(-c2ccccc2I)nc1C(=O)c1cccc(C(F)(F)F)c1 [Compound 91]
Barnyardgrass plant response rating [1, 11]: 0 | Barnyardgrass plant response rating [1, 12]: 10 | Plant response rating, Barnyardgrass [1, 13]: 0 | Plant response rating, Barnyardgrass [1, 14]: 0 | Crabgrass, Large plant response rating [2, 11]: 0 | Crabgrass, Large plant response rating [2, 12]: 10 | Plant response rating, Crabgrass, Large [2, 13]: 0 | Plant response rating, Crabgrass, Large [2, 14]: 0 | Foxtail, Giant plant response rating [3, 11]: 0 | Foxtail, Giant plant response rating [3, 12]: 10 | Plant response rating, Foxtail, Giant [3, 15]: 0 | Plant response rating, Foxtail, Giant [3, 14]: 0 | Morningglory plant response rating [4, 11]: 0 | Morningglory plant response rating [4, 12]: 0 | Plant response rating, Morningglory [4, 15]: 0 | Plant response rating, Morningglory [4, 14]: 0 | Pigweed plant response rating [5, 11]: 10 | Pigweed plant response rating [5, 12]: 30 | Plant response rating, Pigweed [5, 15]: 0 | Plant response rating, Pigweed [5, 14]: 0 | Velvetleaf plant response rating [6, 11]: 0 | Velvetleaf plant response rating [6, 12]: 10 | Plant response rating, Velvetleaf [6, 15]: 0 | Plant response rating, Velvetleaf [6, 14]: 0 | Wheat plant response rating [7, 11]: 0 | Wheat plant response rating [7, 12]: 0 | Plant response rating, Wheat [7, 15]: 0 | Plant response rating, Wheat [7, 14]: 0 | Corn plant response rating (corn (Zea mays); [11]): 10 | Corn plant response rating (corn (Zea mays); [12]): 10 | Plant response rating, Corn (corn (Zea mays); [13]): 0 | Plant response rating, Corn (corn (Zea mays); [14]): 0 | Plant response rating, Rice (rice (Oryza sativa); [16]): 0 | Plant response rating, Rice (rice (Oryza sativa); [17]): 0 | Plant response rating, Rice (rice (Oryza sativa); Flood, 31 g ai/ha): 0 | Plant response rating, Rice (rice (Oryza sativa); Flood, 62 g ai/ha): 0 | Plant response rating, Sedge, Umbrella [8, 16]: 0 | Plant response rating, Sedge, Umbrella [8, 17]: 0 | Plant response rating, Sedge, Umbrella ([8]; Flood, 31 g ai/ha): 0 | Plant response rating, Sedge, Umbrella ([8]; Flood, 62 g ai/ha): 0 | Plant response rating, Ducksalad [9, 16]: 0 | Plant response rating, Ducksalad [9, 17]: 0 | Plant response rating, Ducksalad ([9]; Flood, 31 g ai/ha): 0 | Plant response rating, Ducksalad ([9]; Flood, 62 g ai/ha): 0 | Plant response rating, Barnyardgrass [10, 16]: 0 | Plant response rating, Barnyardgrass [10, 17]: 0 | Plant response rating, Barnyardgrass ([10]; Flood, 31 g ai/ha): 0 | Plant response rating, Barnyardgrass ([10]; Flood, 62 g ai/ha): 0
